# Values of other authors, collected in article PMC6574176 (Biomaterials, 2019).
# Conditions: rapidly bio-eliminated
smiles,measurement,value
"CC1(C)C(/C=C/C=C/C=C/C=C2\N(CCCCS(=O)(=O)O)c3ccc4ccccc4c3C2(C)C)=[N+](CCCCS(=O)(=O)[O-])c2ccc3ccccc3c21 [free ICG, Indocyanine Green]",t1/2 of free ICG,2 to 4 min
